Entries after “also recorded” stand apart in the source; their conditions may differ. Like-named read-outs stand apart in the source and are kept apart here.
Columns and labels:
dNCS-1 = biological target: T1, dNCS-1 (Drosophila melanogaster, UniProt Q9VWX8); test: Affinity for dNCS-1 by fluorescence spectroscopy; type: binding; details: for affinity in the fluorescence technique: additional fluorescence studies, result in words
T1 sequence (Q9VWX8 1-187): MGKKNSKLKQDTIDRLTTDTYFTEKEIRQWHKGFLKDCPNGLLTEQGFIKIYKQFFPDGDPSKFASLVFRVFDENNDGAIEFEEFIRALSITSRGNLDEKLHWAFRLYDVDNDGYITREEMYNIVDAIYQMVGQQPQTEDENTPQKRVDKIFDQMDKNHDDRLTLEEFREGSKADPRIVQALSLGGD
Description: The protein complex formed by NCS-1 and Ric8 regulates the number of synapses and neurotransmitter release probability, so it is considered a good therapeutic target for the treatment of diseases in which the synapse is impaired. Based on fluorescence spectroscopy studies, the affinity of compounds for dNCS-1 (neuronal calcium sensor of Drosophila) has been proven. Neuronal calcium sensor NCS-1 is a protein the sequence of which is conserved from yeasts to humans.
The affinity of the compounds for dNCS-1 was measured by means of the fluorescence spectroscopy technique. The emission intensity of the complex is analyzed, where the signal is monitored at increasing concentrations of ligand (1:0 to 1:30 equivalents), keeping the protein concentration […], 30.8 µM, 1 eq.) constant. The affinity constant is thereby obtained through the apparent disassociation constant. […] The experiments are performed at 5°C with dNCS-1 in 50 mM Tris buffer, pH 7.9, 125 mM NaCl, 0.5 mM CaCl2 with 5% DMSO in a total volume of 300 µL. The experiment is performed at the excitation wavelength of 295 nm and at the emission wavelength of 345 nm (maximum emission) depending on the compound in a Jobin Yvon Floromax4 spectrofluorometer equipped with a Peltier Thermostat; the obtained values are the result of the normalized average of the three repetitions for each measurement. […] The affinity constants found for the tested compounds are as follows: […]

NCS-1/Ric8a interaction = biological target: T2, NCS-1/Ric8a interaction (Homo sapiens, UniProt P62166); test: Co-immunoprecipitation assay of NCS-1/Ric8a interaction in transfected HEK293 cells; type: cell-based; details: for modulatory activity: stated as the reason for modelling the compounds in Drosophila Frq2, underlying test not specified; for NCS-1/Ric8a interaction: HEK293 cells transfected with human Ric8a (V5 tag) and NCS1, IP with anti-NCS1, Western blot with anti-V5, DMSO lane = baseline
T2 construct: expressed in transfected cells; host or cells: HEK293
T2 sequence (P62166 2-190 limits assumed): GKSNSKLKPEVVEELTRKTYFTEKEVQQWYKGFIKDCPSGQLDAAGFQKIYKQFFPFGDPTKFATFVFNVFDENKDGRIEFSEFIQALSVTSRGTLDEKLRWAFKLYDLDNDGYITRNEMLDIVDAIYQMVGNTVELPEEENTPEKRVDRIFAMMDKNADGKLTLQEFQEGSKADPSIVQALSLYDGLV
T2 sequence (Q9NPQ8 whole entry partner): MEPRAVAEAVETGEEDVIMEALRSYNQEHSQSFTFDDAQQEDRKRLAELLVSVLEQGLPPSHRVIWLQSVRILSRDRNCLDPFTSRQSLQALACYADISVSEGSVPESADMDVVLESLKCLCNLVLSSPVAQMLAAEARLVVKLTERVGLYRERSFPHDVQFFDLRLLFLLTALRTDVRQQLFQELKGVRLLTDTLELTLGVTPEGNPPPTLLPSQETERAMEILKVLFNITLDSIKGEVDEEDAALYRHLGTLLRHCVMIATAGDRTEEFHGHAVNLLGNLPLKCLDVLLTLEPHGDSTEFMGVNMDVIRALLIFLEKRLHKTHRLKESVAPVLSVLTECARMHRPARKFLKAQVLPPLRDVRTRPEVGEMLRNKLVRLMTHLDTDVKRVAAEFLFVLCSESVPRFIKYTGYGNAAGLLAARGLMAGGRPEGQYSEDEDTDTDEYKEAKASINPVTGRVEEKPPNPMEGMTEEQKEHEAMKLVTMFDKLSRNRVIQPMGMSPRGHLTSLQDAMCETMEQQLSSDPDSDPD
Method: To identify compounds useful as modulators of the protein complex formed by NCS-1 and Ric8 (specifically as compounds useful for promoting NCS-1/Ric8a interaction), the experiment shown in Figure 1 was carried out. […] The DMSO lane represents baseline levels of NCS1/Ric8a interaction. IP was performed with anti-NCS1 antibodies, followed by the immunodetection of Ric8a in Western blot with the anti-V5 antibody.
(§1) • Figure 1. […] The DMSO lane represents […]. • Figure 2. […] The curves were fitted considering a stoichiometry of 1:1. For correct curve comparison, intensities were normalized and depicted as (I0 - I)/I0. X. The value of r^2 is 0.998. • Figure 3. […] The residues in which sequence differences are found are shown in pink. • Figure 4. These three figures show the pharmacophore group taking the compound A3H3 as an example. Specifically, groups A1, A2, and N6 (N) refer to the heteroatoms forming the central part of acylhydrazone commonly found in all the assayed compounds, in other words, the carbonyl (A1) bound to the N of amide (N6), which is in turn bound to another imine N (A2). The terms R7 (R) and R8 (R') refer to the aromatic rings which act as substituents. Both the carbonyl-bound R and the imine N-bound R are aromatic • Figure 5. […] Evaluation of the efficacy of compound A3H3 in a model for Huntington's disease. Wild-type mice WT and transgenic mice (HD) expressing exon 1 of human huntingtin (strain R6/1) were treated orally with compound A3H3 at a dose of 25 mg/kg. The treatment started at 3 months of age and lasted for 6 weeks. As a measurement of motor coordination, stride length (A) and the stay time on Rotarod (B) were analyzed.
In order to evaluate the capacity of the compounds of the invention, A3H3, A5H2, and A3H4, for modulating interaction between human NCS-1 and Ric8as, HEK293 cells were transfected with a version of epitope V5-labeled Ric8a (Ric8a-V5) and NCS-1, performing cell incubation and then cell lysis with the product to be assayed. The amount of NCS-1-bound Ric8a-V5 was then assessed by means of the immunoprecipitation technique.

[1] = tested on: transgenic mice (HD) expressing exon 1 of human huntingtin (strain R6/1); test: Motor coordination in a mouse model for Huntington's disease; type: in vivo; details: oral, 25 mg/kg, start at 3 months of age, after 6 weeks, significant differences with respect to the rest of groups
Description: as §1

[2] = tested on: flies overexpressing human aβ42arc (D42Gal4> aβ42arc); test: Number of synapses in a Drosophila melanogaster model for Alzheimer's disease; type: in vivo; details: flies fed with 100 µM throughout the entire life cycle; adult abdominal motor neurons of 20 days; nc82-positive points, confocal images; vs DMSO
Method: It has been described above that the expression of the human aβ42arc peptide (Arctic mutation) in motor neurons leads to a reduction in the number of synapses with respect to normal neuromuscular junctions in individuals of the same age, therefore, flies overexpressing human aβ42arc (D42Gal4> aβ42arc) were fed with 100 µM compound A3H3 or with the same amount of solvent, DMSO, throughout the entire life cycle. Adult abdominal motor neurons of 20 days were analyzed and the number of synapses (nc82-positive points) was determined in different flies using confocal images.

[3] = tested on: Flies overexpressing aβ42arc (D42Gal4> aβ42arc) in their motor neurons; test: Locomotor activity in a Drosophila melanogaster model for Alzheimer's disease (Drosophila activity monitors); type: in vivo; details: D42Gal4> aβ42arc flies fed 100 µM; total number of beam breaks per hour, two consecutive days; vs DMSO
Method: As mentioned, overexpression of the human aβ42arc peptide in the motor neurons of Drosophila melanogaster causes synapse loss and this correlates with a severe locomotor dysfunction. Flies overexpressing aβ42arc (D42Gal4> aβ42arc) in their motor neurons or overexpressing the control (D42Gal4> LacZ) were fed with compound A3H3 at a concentration of 100 µM or with DMSO using the same concentration. Fly locomotor activity was recorded in Drosophila activity monitors (DAM2, Trikinetics) and the total number of beam breaks per hour was analyzed for two consecutive days.

[4] = apparent dissociation constant, 5°C, 50 mM Tris buffer pH 7.9, 125 mM NaCl, 0.5 mM CaCl2, 5% DMSO, excitation 295 nm, emission 345 nm, three repetitions, read-out: Kd

O=C(NN=Cc1ccc(Cl)c([N+](=O)[O-])c1)C(O)c1ccccc1 (stereo not drawn) [A5H6]
Kd (dNCS-1; [4]): 3.2 ± 0.3 µM | modulatory activity (NCS-1/Ric8a interaction): exhibited modulatory activity

COCCC(=O)N/N=C/c1ccc([N+](=O)[O-])c(O)c1 [A3H4, (E)-N'-(3-hydroxy-4-nitrobenzylidene)-3-methoxypropanehydrazide]
NCS-1/Ric8a interaction (NCS-1/Ric8a interaction): allows interaction with Ric8-a

O=C(Cc1c[nH]c2ccccc12)NN=Cc1ccc2ccccc2c1[N+](=O)[O-] [A4H3]
affinity in the fluorescence technique (dNCS-1): without yielding any positive results

O=C(N/N=C\c1ccc(Cl)c([N+](=O)[O-])c1)c1ccco1 [A5H2, (Z)-N'-(4-chloro-3-nitrobenzylidene)furan-2-carbohydrazide]
Kd (dNCS-1; [4]): 3.2 ± 0.3 µM | NCS-1/Ric8a interaction (NCS-1/Ric8a interaction): allows interaction with Ric8-a; also recorded: promoted NCS-1/Ric8a interaction

O=C(NN=Cc1cc(F)ccc1[N+](=O)[O-])c1cccs1 (mixture of isomers) [A7H8, (E/Z)-N'-(5-fluoro-2-nitrobenzylidene)thiophene-2-carbohydrazide]
Kd (dNCS-1; [4]): 4 ± 1 µM

CC(C)(C)c1ccc(C(=O)N/N=C/c2ccc([N+](=O)[O-])c(O)c2)cc1 [A3H17, (E)-4-(tert-butyl)-N'-(3-hydroxy-4-nitrobenzylidene)benzohydrazide]
NCS-1/Ric8a interaction (NCS-1/Ric8a interaction): promoted NCS-1/Ric8a interaction

O=C(NN=Cc1ccc2ccccc2c1[N+](=O)[O-])c1cccs1 [A4H8]
affinity in the fluorescence technique (dNCS-1): without yielding any positive results

O=C(N/N=C/c1cc(F)ccc1[N+](=O)[O-])c1ccco1 [A7H2, (E)-N'-(5-fluoro-2-nitrobenzylidene)furan-2-carbohydrazide]
Kd (dNCS-1; [4]): 25 ± 4 µM | modulatory activity (NCS-1/Ric8a interaction): exhibited modulatory activity

O=C(N/N=C/c1ccc([N+](=O)[O-])c(O)c1)c1ccco1 [A3H2, (E)-N'-(3-hydroxy-4-nitrobenzylidene)furan-2-carbahydrazide]
Kd (dNCS-1; [4]): 32 ± 2 µM

O=C(NN=Cc1ccc([N+](=O)[O-])c(O)c1)C(O)c1ccccc1 (racemic) [A3H6, (±)-(E/Z)-2-hydroxy-N'-(3-hydroxy-4-nitrobenzylidene)-2-phenylacetohydrazide]
NCS-1/Ric8a interaction (NCS-1/Ric8a interaction): promoted NCS-1/Ric8a interaction

O=C(N/N=C\c1ccc([N+](=O)[O-])c(O)c1)c1ccc(Cl)s1 [A3H18, (Z)-5-chloro-N'-(3-hydroxy-4-nitrobenzylidene)thiophene-2-carbohydrazide]
NCS-1/Ric8a interaction (NCS-1/Ric8a interaction): promoted NCS-1/Ric8a interaction

O=C(NN=Cc1ccc(Cl)c([N+](=O)[O-])c1)c1cccs1 (mixture of isomers) [A5H8, (E/Z)-N'-(4-chloro-3-nitrobenzylidene)thiophene-2-carbohydrazide]
Kd (dNCS-1): 19 ± 8 µM

O=C(N/N=C/c1cc([N+](=O)[O-])ccc1F)c1ccco1 [A8H2, (E)-N'-(2-fluoro-5-nitrobenzylidene)furan-2-carbohydrazide]
Kd (dNCS-1; [4]): 7 ± 1 µM | NCS-1/Ric8a interaction (NCS-1/Ric8a interaction): promoted NCS-1/Ric8a interaction

O=C(NN=Cc1ccc([N+](=O)[O-])c(O)c1)c1cc2ccccc2cc1O (mixture of isomers) [A3H19, (E/Z)-3-hydroxy-N'-(3-hydroxy-4-nitrobenzylidene)-2-naphthohydrazide]
NCS-1/Ric8a interaction (NCS-1/Ric8a interaction): promoted NCS-1/Ric8a interaction

O=C(Cc1c[nH]c2ccccc12)NN=Cc1ccc([N+](=O)[O-])c(O)c1 (mixture of isomers) [A3H3, (E/Z)-N'-(3-hydroxy-4-nitrobenzylidene)-2-(1H-indol-3-yl)acetohydrazide]
Kd (dNCS-1; [4]): 43 ± 6 µM | stay time on Rotarod [1]: the same cannot be said | stride length [1]: the same cannot be said | increase of the binding of NCS-1 with Ric8a (NCS-1/Ric8a interaction; HEK293 cells transfected with Ric8a-V5 and NCS-1, amount of NCS-1-bound Ric8a-V5 by immunoprecipitation): more than two fold | NCS-1/Ric8a interaction (NCS-1/Ric8a interaction): allows interaction with Ric8-a; also recorded: promoted NCS-1/Ric8a interaction | modulatory activity (NCS-1/Ric8a interaction): exhibited modulatory activity | pathological reduction of the synapse count [2]: greatly suppressed | locomotor impairment due to overexpression of aβ42arc [3]: thoroughly improved

O=C(NN=Cc1ccc2ccccc2c1[N+](=O)[O-])C(O)c1ccccc1 (stereo not drawn) [A4H6]
affinity in the fluorescence technique (dNCS-1): without yielding any positive results

— patent publication EP3858342A1, “ACYLHYDRAZONES FOR THE TREATMENT OF NEUROLOGICAL DISEASES” (Consejo Superior de Investigaciones Científicas (CSIC), priority 2018, dated 2020)
